# Source: patent US12077503B2, “Substituted cyclic amides and their use as herbicides” (FMC CORPORATION, priority 2015, dated 2024)
# Assays:
# Type in all cases: in vivo
# Kochia (Kochia scoparia) [1] = assay: Test A preemergence; details: Bassia scoparia, pre-emergence, 240 h, 0 to 100 scale where 0 is no effect and 100 is complete control, read-out: Kochia plant response rating
# Procedure, shortened: (§1)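 Visual injury, scored on a 0–100 scale relative to untreated controls, was recorded about 10 d after application. Treatments were a preemergence soil spray over planted seeds or a postemergence spray on plants at the one- to two-leaf stage, 2 to 10 cm tall, all in loam soil–sand blend in the greenhouse.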
# [2] = test system: barnyardgrass (Echinochloa crus-galli); assay: Test A preemergence; details: Echinochloa crus-galli, pre-emergence, 240 h, 0 to 100 scale where 0 is no effect and 100 is complete control, read-out: Barnyardgrass plant response rating
# Procedure, shortened: as §1
# [3] = test system: giant foxtail (Setaria faberii); assay: Test A preemergence; details: Setaria faberi, pre-emergence, 240 h, 0 to 100 scale where 0 is no effect and 100 is complete control, read-out: Foxtail, Giant plant response rating
# Procedure, shortened: as §1
# [4] = test system: pigweed (Amaranthus retroflexus); assay: Test A preemergence; details: Amaranthus retroflexus, pre-emergence, 240 h, 0 to 100 scale where 0 is no effect and 100 is complete control, read-out: Pigweed plant response rating
# [5] = test system: ragweed (common ragweed, Ambrosia elatior); assay: Test A preemergence; details: Ambrosia artemisiifolia, pre-emergence, 240 h, 0 to 100 scale where 0 is no effect and 100 is complete control, read-out: Ragweed plant response rating
# Procedure, shortened: as §1
# [6] = test system: ryegrass, Italian (Italian ryegrass, Lolium multiflorum); assay: Test A preemergence; details: Lolium multiflorum, pre-emergence, 240 h, 0 to 100 scale where 0 is no effect and 100 is complete control, read-out: Ryegrass, Italian plant response rating
# Procedure, shortened: as §1
# [7] = test system: Galium (catchweed bedstraw, Galium aparine); assay: Test A postemergence; details: Galium, post-emergence, 240 h, read-out: Galium plant response rating (0 to 100 scale)
# Procedure, shortened: as §1
# Kochia (Kochia scoparia) [8] = assay: Test A postemergence; details: Bassia scoparia, post-emergence, 240 h, read-out: Kochia plant response rating (0 to 100 scale)
# Procedure, shortened: as §1
# [9] = test system: barnyardgrass (Echinochloa crus-galli); assay: Test A postemergence; details: Echinochloa crus-galli, post-emergence, 240 h, read-out: Barnyardgrass plant response rating (0 to 100 scale)
# Procedure, shortened: as §1
# [10] = test system: blackgrass (Alopecurus myosuroides); assay: Test A postemergence; details: Alopecurus myosuroides, post-emergence, 240 h, read-out: Blackgrass plant response rating (0 to 100 scale)
# Procedure, shortened: as §1
# corn (Zea mays) = assay: Test A postemergence; details: Zea mays, post-emergence, 240 h, read-out: Corn plant response rating (0 to 100 scale)
# Procedure, shortened: as §1
# [11] = test system: giant foxtail (Setaria faberii); assay: Test A postemergence; details: Setaria faberi, post-emergence, 240 h, read-out: Foxtail, Giant plant response rating (0 to 100 scale)
# Procedure, shortened: as §1
# [12] = test system: pigweed (Amaranthus retroflexus); assay: Test A postemergence; details: Amaranthus retroflexus, post-emergence, 240 h, read-out: Pigweed plant response rating (0 to 100 scale)
# Procedure, shortened: as §1
# [13] = test system: ragweed (common ragweed, Ambrosia elatior); assay: Test A postemergence; details: Ambrosia artemisiifolia, post-emergence, 240 h, read-out: Ragweed plant response rating (0 to 100 scale)
# Procedure, shortened: as §1
# [14] = test system: ryegrass, Italian (Italian ryegrass, Lolium multiflorum); assay: Test A postemergence; details: Lolium multiflorum, post-emergence, 240 h, read-out: Ryegrass, Italian plant response rating (0 to 100 scale)
# Procedure, shortened: as §1
# [15] = test system: wheat (Triticum aestivum); assay: Test A postemergence; details: Triticum aestivum, post-emergence, 240 h, Postemergence, 31 g ai/ha; 0 is no effect, 100 is complete control; read-out: Wheat plant response rating (0 to 100 scale)
# Procedure, shortened: as §1
# [16] = test system: barnyardgrass (Echinochloa crus-galli); assay: Test B flooded paddy test; details: Echinochloa crus-galli, 250 g ai/ha, Flood; 0 to 100 scale where 0 is no effect and 100 is complete control; read-out: Barnyardgrass plant response rating
# Procedure, shortened: (§2)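 Visual ratings (0 none to 100 complete control) are relative to untreated plants, taken 13–15 d after treatment in a greenhouse. Test material went straight into floodwater standing 3 cm above the soil, kept constant, on plants at the 2-leaf stage.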
# [17] = test system: ducksalad (Heteranthera limosa); assay: Test B flooded paddy test; details: Heteranthera limosa, 250 g ai/ha, Flood; 0 to 100 scale where 0 is no effect and 100 is complete control; read-out: Ducksalad plant response rating
# Procedure, shortened: as §2
# rice (Oryra sativa) = assay: Test B flooded paddy test; details: Oryza sativa, 250 g ai/ha, Flood; 0 to 100 scale where 0 is no effect and 100 is complete control; read-out: Rice plant response rating
# Procedure, shortened: as §2
# [18] = test system: sedge, umbrella (small-flower umbrella sedge, Cyperus difformis); assay: Test B flooded paddy test; details: Cyperus difformis, 250 g ai/ha, Flood; 0 to 100 scale where 0 is no effect and 100 is complete control; read-out: Sedge, Umbrella plant response rating
# Procedure, shortened: as §2
# [19] = 125 g ai/ha, preemergence, visual injury rating, approximately 10 d
# [20] = 125 g ai/ha, postemergence, visual injury vs untreated controls after approx. 10 d, 0 = no effect, 100 = complete control
# [21] = Postemergence, 31 g ai/ha, 0 is no effect, 100 is complete control
compound,measurement,setting,value
CN1C[C@H](c2ccc(Cl)c(F)c2)[C@@H](C(=O)Nc2cccc(F)c2F)C1=O [Compound 1265],pest or weed control at 31 g/ha,"Kochia (Kochia scoparia) [1]; 31 g ai/ha, Preemergence",30%
same,pest or weed control at 125 g/ha,Kochia (Kochia scoparia) [1]; [19],70%
same,pest or weed control at 31 g/ha,"[2]; 31 g ai/ha, Preemergence",80%
same,pest or weed control at 125 g/ha,[2]; [19],90%
same,pest or weed control at 31 g/ha,"[3]; 31 g ai/ha, Preemergence",90%
same,pest or weed control at 125 g/ha,[3]; [19],90%
same,pest or weed control at 31 g/ha,"[4]; 31 g ai/ha, Preemergence",0%
same,pest or weed control at 125 g/ha,[4]; [19],80%
same,pest or weed control at 31 g/ha,"[5]; 31 g ai/ha, Preemergence",0%
same,pest or weed control at 125 g/ha,[5]; [19],0%
same,pest or weed control at 31 g/ha,"[6]; 31 g ai/ha, Preemergence",50%
same,pest or weed control at 125 g/ha,[6]; [19],60%
same,pest or weed control at 125 g/ha,[7]; [20],60%
same,pest or weed control at 31 g/ha,[7]; [21],60%
same,pest or weed control at 125 g/ha,Kochia (Kochia scoparia) [8]; [20],70%
same,pest or weed control at 31 g/ha,Kochia (Kochia scoparia) [8]; [21],50%
same,pest or weed control at 125 g/ha,[9]; [20],90%
same,pest or weed control at 31 g/ha,[9]; [21],80%
same,pest or weed control at 125 g/ha,[10]; [20],50%
same,pest or weed control at 31 g/ha,[10]; [21],0%
same,plant injury at 125 g/ha,corn (Zea mays); [20],70%
same,plant injury at 31 g/ha,corn (Zea mays); [21],30%
same,pest or weed control at 125 g/ha,[11]; [20],80%
same,pest or weed control at 31 g/ha,[11]; [21],80%
same,pest or weed control at 125 g/ha,[12]; [20],70%
same,pest or weed control at 31 g/ha,[12]; [21],30%
same,pest or weed control at 125 g/ha,[13]; [20],30%
same,pest or weed control at 31 g/ha,[13]; [21],0%
same,pest or weed control at 125 g/ha,[14]; [20],30%
same,pest or weed control at 31 g/ha,[14]; [21],0%
same,plant injury at 31 g/ha,[15],0%
same,pest or weed control at 250 g/ha,[16],60%
same,pest or weed control at 250 g/ha,[17],90%
same,pest or weed control at 250 g/ha,rice (Oryra sativa),45%
same,pest or weed control at 250 g/ha,[18],0%
